According to US7153869B2, “Substituted amino acids as erythropoietin mimetics” (priority 1998, dated 2006):
Read-outs that look alike come from different tables or passages of the source.

Biological target: T1, EBP-Ig (N-terminal 225 amino acids of the human EPO receptor joined to an Ig heavy chain) (Homo sapiens, UniProt P19235)
T1 construct: Ig heavy chain (fusion partner); made in house; host or cells: NSO cells (secreted into conditioned media)
T1 sequence (P19235 25-250 limits assumed): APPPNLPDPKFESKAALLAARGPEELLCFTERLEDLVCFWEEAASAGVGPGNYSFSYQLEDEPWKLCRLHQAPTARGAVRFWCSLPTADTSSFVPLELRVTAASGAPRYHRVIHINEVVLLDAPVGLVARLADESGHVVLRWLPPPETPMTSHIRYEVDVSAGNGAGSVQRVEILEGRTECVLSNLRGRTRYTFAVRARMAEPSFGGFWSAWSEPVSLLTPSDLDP
Experiment: Inhibition of [125I]EPO binding to immobilized EBP-Ig (EPO binding protein-Ig), scintillation Flash plate competition assay
Details: for IC30 μM (Inhibition of EPO binding to EBP-Ig): 0–500 μM test compound

[1] = read-out: % inh @ 50 μM (Inhibition of EPO binding to EBP-Ig)

SMILES: CC(=O)O.COC(=O)c1cccc(C=CCNC(CCCCNC(=O)OCc2ccccc2)C(=O)OC)c1 (stereo not shown) [compound 321]
- IC30 μM (Inhibition of EPO binding to EBP-Ig) (0.5 nM [125I]EPO): 45 µM
- EPO/EBP-Ig % inh @ 50 μM (50 μM compound, Table 18A): 42%
- % inh @ 50 μM (Inhibition of EPO binding to EBP-Ig) (50 μM test compound, 0.5 nM [125I]EPO, average % inhibition): 42%

SMILES: CC(=O)O.COC(=O)[C@H](CO)N(C/C=C/c1cccc(Oc2ccc(C(C)(C)C)cc2)c1)C/C=C/c1cccc(Oc2ccc(C(C)(C)C)cc2)c1 [compound 298]
- EPO/EBP-Ig % inh @ 50 μM (50 μM compound, Table 16A): 1%

SMILES: CC(=O)O.COC(=O)c1cccc(C=CCNC(C(=O)OC)C(C)C)c1 (stereo not shown) [compound 371]
- EPO/EBP-Ig % inh @ 50 μM (50 μM compound): 16%

SMILES: COC(=O)[C@H](C)NC/C=C/c1ccccc1 [compound 372]
- EPO/EBP-Ig % inh @ 50 μM (50 μM compound): 0%

SMILES: O=C(O)CC(C(=O)O)N(C/C=C/c1cccc(Oc2ccccc2)c1)C/C=C/c1cccc(Oc2ccccc2)c1 (stereo not shown) [compound 108]
- IC30 μM (Inhibition of EPO binding to EBP-Ig) (0.5 nM [125I]EPO): 23 µM
- inhibition at 50 µM [1]: 81%
- inhibition at 50 µM (read-out: EPO/EBP-Ig % inh @ 50 μM, Table 6, 50 μM): 81%

SMILES: Cc1ccc(Oc2cccc(CN(Cc3cccc(NCc4ccccc4)c3)C(CC(=O)O)C(=O)O)c2)cc1 (stereo not shown) [compound 75]
- EPO/EBP-Ig % inh @ 50 μM (Table 4, 50 μM): −2%

SMILES: NCCCCC(C(=O)O)N(Cc1cccc(Oc2ccccc2)c1)C(=O)C=Cc1cccc(OCc2ccccc2)c1 (stereo not shown) [compound 286]
- IC30 μM (Inhibition of EPO binding to EBP-Ig) (0.5 nM [125I]EPO): 35 µM
- inhibition at 50 µM [1]: 46%
- inhibition at 50 µM (read-out: EPO/EBP-Ig % inh @ 50 μM, 50 μM compound, Table 15): 46%
- IC50 (read-out: IC50, μM (Inhibition of EPO binding to EBP-Ig), 0.5 nM [125I]EPO, concentration reducing corrected total binding to 50%): 65 µM

SMILES: CC(C)(C)OC(=O)CC(C(=O)OC(C)(C)C)N(CC=Cc1cccc(Oc2ccccc2)c1)CC=Cc1cccc(Oc2ccccc2)c1 (stereo not shown) [cpd 106, N,N-bis(3-Phenoxycinnamyl)Asp(O-t-Bu)-O-t-Bu]
- EPO/EBP-Ig % inh @ 50 μM (Table 6, 50 μM): 20%

SMILES: COC(=O)[C@H](CO)NC/C=C/c1cccc(Oc2ccc(Cl)c(Cl)c2)c1.O=C(O)C(F)(F)F [compound 345]
- EPO/EBP-Ig % inh @ 50 μM (50 μM compound, Table 20A): 40%

SMILES: COC(=O)C(COC(C)(C)C)N(CC=Cc1cccc(Oc2ccccc2)c1)CC=Cc1cccc(Oc2ccccc2)c1 (stereo not shown) [cpd 290, N,N-bis(3-Phenoxycinnamyl)Ser(t-Bu)-OMe]
- EPO/EBP-Ig % inh @ 50 μM (50 μM compound, Table 16A): 0%

SMILES: COC(=O)C(CCCCNC(=O)OC(C)(C)C)N(Cc1ccc(OCc2ccccc2)cc1)Cc1cccc([N+](=O)[O-])c1 (stereo not shown) [cpd 113, N-(4-Benzyloxybenzyl)-N-(3-nitrobenzyl)Lys(Boc)-OMe]
- EPO/EBP-Ig % inh @ 50 μM (Table 7, 50 μM): 24%

SMILES: O=C(O)C(F)(F)F.O=C(O)[C@H](CO)N(C/C=C/c1cccc(Oc2ccc(Cl)c(Cl)c2)c1)C/C=C/c1cccc(Oc2ccc(Cl)c(Cl)c2)c1 [compound 307]
- EPO/EBP-Ig % inh @ 50 μM (50 μM compound, Table 16A): 25%

SMILES: CC(C)(C)OC(=O)NCCCCC(C(=O)NCCCCCCCCCCCCNC(=O)C(CCCCNC(=O)OC(C)(C)C)N(Cc1ccc(OCc2ccccc2)cc1)Cc1ccc(OCc2ccccc2)cc1)N(Cc1ccc(OCc2ccccc2)cc1)Cc1ccc(OCc2ccccc2)cc1 (stereo not shown) [compound 259]
- EPO/EBP-Ig % inh @ 50 μM (50 μM compound, Table 13): −13%

SMILES: COC(=O)C(CCCCN)N(C/C=C/c1cccc(N)c1)C/C=C/c1cccc(N)c1 (stereo not shown) [compound 185]
- EPO/EBP-Ig % inh @ 50 μM (50 μM compound, Table 9): 29%

SMILES: CCCNC(=O)C(CCCCN)N(C/C=C/c1ccccc1)C/C=C/c1ccccc1 (stereo not shown) [compound 212]
- EPO/EBP-Ig % inh @ 50 μM (50 μM compound, Table 10): −10%

SMILES: O=C(O)CCC(C(=O)O)N(C/C=C/c1ccc(NC(=O)CC2(CC(=O)O)CCCC2)cc1)Cc1ccc(OCc2ccccc2)cc1 (stereo not shown) [compound 88]
- EPO/EBP-Ig % inh @ 50 μM (Table 5, 50 μM): 10.3%

SMILES: CC(C)(C)OC(=O)CC(C(=O)NCCCOCCOCCOCCCNC(=O)C(CC(=O)OC(C)(C)C)N(C/C=C/c1cccc(Oc2ccc(C(C)(C)C)cc2)c1)C/C=C/c1cccc(Oc2ccc(C(C)(C)C)cc2)c1)N(C/C=C/c1cccc(Oc2ccc(C(C)(C)C)cc2)c1)C/C=C/c1cccc(Oc2ccc(C(C)(C)C)cc2)c1 (stereo not shown) [compound 253]
- EPO/EBP-Ig % inh @ 50 μM (50 μM compound, Table 12): −5%

SMILES: COC(=O)C(CCCCN)N(C/C=C/c1cccc(Oc2ccccc2)c1)Cc1cccc(Oc2ccccc2)c1 (stereo not shown) [compound 137]
- IC50: 30 µM
- IC30 μM (Inhibition of EPO binding to EBP-Ig) (0.5 nM [125I]EPO): 5 µM
- inhibition at 50 µM [1]: 60%

SMILES: O=C(O)CC(C(=O)O)N(Cc1cccc(NCc2cccc(Br)c2)c1)Cc1cccc(Oc2ccccc2)c1 (stereo not shown) [compound 67]
- EPO/EBP-Ig % inh @ 50 μM (Table 4, 50 μM): −8%
